Source: patent publication US20160185797A1, “ALKYNYL ALCOHOLS AND METHODS OF USE” (Genentech, Inc., priority 2013, published 2016)

Key:
[1] = target: T1, nuclear factor-kappa B (NF-kB)-inducing kinase (NIK) (Homo sapiens, UniProt Q99558); test: NIK enzyme inhibition assay (Transcreener ADP fluorescence polarization, NIK ADP-FP); assay type: biochemical
T1 construct: made in house; host or cells: baculovirus-infected insect cells
Experimental: NIK Enzyme Inhibition Assay:
The ability of the nuclear factor-kappa B (NF-kB)-inducing kinase (NIK) to catalyze the hydrolysis of adenosine-5′-triphosphate (ATP) was monitored using the Transcreener ADP (adenosine-5′-diphosphate) assay (BellBrook Labs). […] Reactions were quenched by the addition of 20 mM 2,2′,2″,2′″-(ethane-1,2-diyldinitrilo)tetraacetic acid and 0.01% Brij 35. The tracer bound to the antibody was displaced by the ADP generated during the NIK reaction, which causes a decrease in fluorescence polarization that was measured by laser excitation at 633 nm with a Fluorescence Correlation Spectroscopy Plus reader (Evotec AG). Equilibrium dissociation constant (Ki) values for NIK inhibitors are calculated from plots of activity vs. inhibitor concentration using Morrison's quadratic equation that accounts for the potential of tight binding, and by also applying the conversion factor that accounted for competitive inhibition and the concentration of substrate used in the assay relative to its Michaelis constant (Km).

[2] = tested on: REL-A (p65) nuclear translocation in HeLa cells; test: REL-A (p65) nuclear translocation assay in HeLa cells, TNF-α stimulated (classical NF-kB signaling), high content imaging; assay type: cell-based; settings: Homo sapiens, HeLa, compound 4.5 h, then 10 ng/mL TNF-α for 30 minutes, read-out: REL-A HeLa Transloc Assay (IC50)
Experimental: (§1) Several assays were developed to profile the cellular activities of NIK inhibitors.
(§2) (2) A second set of cell assay are used to define the selectivity of NIK inhibitors toward inhibition of classical vs. non-classical NF-kB signaling and rely on quantification of the nuclear translocation of p52 (NF-kB2) and REL-A (p65) using high content cellular imaging. For the p52 (non-classical NF-kB signaling) nuclear translocation assay, HeLa cells are treated with different concentrations of compounds (0.2% DMSO final) in medium containing 10% fetal bovine serum and then stimulated with 100 ng/mL of an anti-lymphotoxin beta receptor antibody (R&D Systems) for 5 hours. In the REL-A nuclear translocation assay, HeLa cells are incubated with compounds (0.2% DMSO final) for 4.5 hours in medium containing 10% fetal bovine serum before stimulating them with 10 ng/mL tumor necrosis factor (TNF)-α (R&D Systems) for 30 minutes. Cells are fixed with 4% paraformaldehyde, permeabilized by adding 0.1% Triton X-100 in phosphate buffered saline, and then are incubated with either 2 ug/mL anti-p52 antibody (Millipore) or 400 ng/mL anti-REL-A (p65) antibody (Santa Cruz Biotechnology). Finally, the cells are incubated with an Alexa488-labeled secondary antibody (Invitrogen) and DRAQ5 DNA stain (Biostatus). Imaging is carried out using an Opera reader (Perkin Elmer) and data are analyzed with the aid of Acapella software (Perkin Elmer). The p52 or REL-Atranslocation into the nucleus is quantified by the ratio of the nuclear to cytoplasmic signal intensity. […] The compounds in listed in Table 1 have the corresponding inhibitory value (IC50 in micromolar) for NIK p52 Translocation Assay as set forth in Table 2.
(§3) The compounds in listed in Table 1 have the corresponding inhibitory values (IC50 in micromolar) for the Translocation Assays as set forth in Table 2.

[3] = tested on: p52 (NF-kB2) nuclear translocation in HeLa cells; test: p52 (NF-kB2) nuclear translocation assay in HeLa cells, anti-lymphotoxin beta receptor antibody stimulated (non-classical NF-kB signaling), high content imaging; assay type: cell-based; settings: Homo sapiens, 100 ng/mL anti-lymphotoxin beta receptor antibody for 5 hours, read-out: p52 HeLa Transloc Assay (IC50)
Experimental: as §1, §2, §3

T1 sequence (Q99558 whole entry): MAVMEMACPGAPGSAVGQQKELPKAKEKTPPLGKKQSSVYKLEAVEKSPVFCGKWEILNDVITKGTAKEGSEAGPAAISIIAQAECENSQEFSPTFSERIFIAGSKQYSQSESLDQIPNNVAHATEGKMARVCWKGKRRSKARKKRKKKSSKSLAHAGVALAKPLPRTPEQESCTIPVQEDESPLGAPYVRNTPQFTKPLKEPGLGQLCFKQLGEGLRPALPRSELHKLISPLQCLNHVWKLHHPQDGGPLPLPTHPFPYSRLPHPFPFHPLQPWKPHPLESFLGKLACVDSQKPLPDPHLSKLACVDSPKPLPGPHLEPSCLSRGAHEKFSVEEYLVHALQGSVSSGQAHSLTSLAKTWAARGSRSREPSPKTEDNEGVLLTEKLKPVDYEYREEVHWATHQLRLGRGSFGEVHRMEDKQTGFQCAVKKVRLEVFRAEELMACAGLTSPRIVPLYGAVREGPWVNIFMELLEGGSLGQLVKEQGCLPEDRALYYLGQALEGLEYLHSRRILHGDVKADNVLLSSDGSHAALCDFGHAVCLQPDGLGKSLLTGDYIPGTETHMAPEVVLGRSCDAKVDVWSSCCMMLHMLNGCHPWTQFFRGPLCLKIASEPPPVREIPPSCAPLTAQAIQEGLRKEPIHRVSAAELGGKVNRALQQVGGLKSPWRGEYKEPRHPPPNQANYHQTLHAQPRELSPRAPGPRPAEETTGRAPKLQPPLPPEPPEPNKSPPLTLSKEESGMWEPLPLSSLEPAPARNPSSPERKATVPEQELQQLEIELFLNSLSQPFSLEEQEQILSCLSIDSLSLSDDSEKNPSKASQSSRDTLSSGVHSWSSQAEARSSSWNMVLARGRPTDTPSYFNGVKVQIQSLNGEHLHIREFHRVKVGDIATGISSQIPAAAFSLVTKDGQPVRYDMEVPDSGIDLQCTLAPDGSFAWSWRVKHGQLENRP

Row | SMILES | Ki [1] [µM] | IC50 [2] [µM] | IC50 [3] [nM]
1 | CN1CC[C@@](O)(C#Cc2cccc(-c3nc(C(N)=O)cc(N(C)C)n3)c2)C1=O [Example 6, 6-(dimethylamino)-2-[3-[2-[(3R)-3-hydroxy-1-methyl-2-oxo-pyrrolidin-3-yl]ethynyl]phenyl] pyrimidine-4-carboxamide] | 0.00083 | > 20 | 108
2 | CN1CC[C@@](O)(C#Cc2cccc(-c3nc(C(N)=O)cc(N4CC(F)(F)C4)n3)c2)C1=O [Example 8, 6-(3,3-difluoroazetidin-1-yl)-2-[3-[2-[(3R)-3-hydroxy-1-methyl-2-oxo-pyrrolidin-3-yl]ethynyl]phenyl]pyrimidine-4-carboxamide] | 0.00235 | > 20 | 211
3 | CN1CC[C@@](O)(C#Cc2cccc(-c3nc(NC4CC4)cc(C(N)=O)n3)c2)C1=O [Example 9, 6-(cyclopropylamino)-2-[3-[2-[(3R)-3-hydroxy-1-methyl-2-oxo-pyrrolidin-3-yl]ethynyl]phenyl] pyrimidine-4-carboxamide] | 0.00124 | > 20 | 270
4 | COCCN(C)c1cc(C(N)=O)nc(-c2cccc(C#C[C@]3(O)CCN(C)C3=O)c2)n1 [Example 10, 2-[3-[2-[(3R)-3-hydroxy-1-methyl-2-oxo-pyrrolidin-3-yl]ethynyl]phenyl]-6-[2-methoxyethyl(methyl)amino] pyrimidine-4-carboxamide] | 0.00117 | > 20 | 266
5 | CN1CC[C@@](O)(C#Cc2cccc(-c3nc(C(N)=O)cc(N4CC5(COC5)C4)n3)c2)C1=O [Example 11, 2-[3-[2-[(3R)-3-hydroxy-1-methyl-2-oxo-pyrrolidin-3-yl]ethynyl]phenyl]-6-(6-oxa-2-azaspiro[3.3]heptan-2-yl) pyrimidine-4-carboxamide] | 0.00465 | > 20 | 2500
6 | CNc1cc(C(N)=O)nc(-c2cccc(C#C[C@]3(O)CCN(C)C3=O)c2)n1 [Example 12, 2-[3-[2-[(3R)-3-hydroxy-1-methyl-2-oxo-pyrrolidin-3-yl]ethynyl]phenyl]-6-(methylamino)pyrimidine-4-carboxamide] | 0.00033 | > 20 | 236
7 | Cc1cc(C(N)=O)nc(-c2cccc(C#C[C@]3(O)CCN(C)C3=O)c2)n1 [Example 13, 2-[3-[2-[(3R)-3-hydroxy-1-methyl-2-oxo-pyrrolidin-3-yl]ethynyl]phenyl]-6-methyl-pyrimidine-4-carboxamide] | 0.00048 | > 20 | 382
8 | CN1CC[C@@](O)(C#Cc2cccc(-c3nc(N)cc(C(N)=O)n3)c2)C1=O [Example 14, 6-amino-2-[3-[2-[(3R)-3-hydroxy-1-methyl-2-oxo-pyrrolidin-3-yl]ethynyl]phenyl]pyrimidine-4-carboxamide] | 0.00038 | > 20 | 665
9 | CN1CC[C@@](O)(C#Cc2cccc(-c3nc(C(N)=O)ccc3F)c2)C1=O [Example 15, 5-fluoro-6-[3-[2-[(3R)-3-hydroxy-1-methyl-2-oxo-pyrrolidin-3-yl]ethynyl]phenyl] pyridine-2-carboxamide] | 0.00121 | > 20 | 630
10 | CC(C)c1cc(C(N)=O)nc(-c2cccc(C#C[C@]3(O)CCN(C)C3=O)c2)n1 [Example 16, 2-[3-[2-[(3R)-3-hydroxy-1-methyl-2-oxo-pyrrolidin-3-yl]ethynyl]phenyl]-6-isopropyl-pyrimidine-4-carboxamide] | 0.00054 | > 20 | 191
11 | CN1CC[C@@](O)(C#Cc2cccc(-c3nc(C(N)=O)cc(C(F)(F)F)n3)c2)C1=O [Example 17, 2-[3-[2-[(3R)-3-hydroxy-1-methyl-2-oxo-pyrrolidin-3-yl]ethynyl]phenyl]-6-(trifluoromethyl)pyrimidine-4-carboxamide] | 0.00084 | > 20 | 225
12 | COCC1CCCN1c1cc(C(N)=O)nc(-c2cccc(C#C[C@]3(O)CCN(C)C3=O)c2)n1 (stereo partly drawn) [Example 18, 2-[3-[2-[(3R)-3-hydroxy-1-methyl-2-oxo-pyrrolidin-3-yl]ethynyl]phenyl]-6-[2-(methoxymethyl)pyrrolidin-1-yl]pyrimidine-4-carboxamide] | 0.00219 | > 20 | 39
13 | CON(C)c1cc(C(N)=O)nc(-c2cccc(C#C[C@]3(O)CCN(C)C3=O)c2)n1 [Example 19, 2-[3-[2-[(3R)-3-hydroxy-1-methyl-2-oxo-pyrrolidin-3-yl]ethynyl]phenyl]-6-[methoxy (methyl)amino]pyrimidine-4-carboxamide] | 0.0011 | > 20 | 45.5
14 | CN1CC[C@@](O)(C#Cc2cccc(-c3nc(C(N)=O)cc(N4CCc5ccccc54)n3)c2)C1=O [Example 20, 2-[3-[2-[(3R)-3-hydroxy-1-methyl-2-oxo-pyrrolidin-3-yl]ethynyl]phenyl]-6-indolin-1-yl-pyrimidine-4-carboxamide] | 0.00079 | 19.1 | 374
15 | CN1CC[C@@](O)(C#Cc2cccc(-c3nc(C(N)=O)cc(N4CCCC45COC5)n3)c2)C1=O [Example 21, 2-[3-[2-[(3R)-3-hydroxy-1-methyl-2-oxo-pyrrolidin-3-yl]ethynyl]phenyl]-6-(2-oxa-8-azaspiro[3.4]octan-8-yl) pyrimidine-4-carboxamide] | 0.0012 | > 20 | 84.2
16 | C[C@@H]1CCN1c1cc(C(N)=O)nc(-c2cccc(C#C[C@]3(O)CCN(C)C3=O)c2)n1 [Example 22, 2-[3-[2-[(3R)-3-hydroxy-1-methyl-2-oxo-pyrrolidin-3-yl]ethynyl]phenyl]-6-[(2R)-2-methylazetidin-1-yl]pyrimidine-4-carboxamide] | 0.00114 | > 20 | 85
17 | C[C@H]1CCN1c1cc(C(N)=O)nc(-c2cccc(C#C[C@]3(O)CCN(C)C3=O)c2)n1 [Example 23, 2-[3-[2-[(3R)-3-hydroxy-1-methyl-2-oxo-pyrrolidin-3-yl]ethynyl]phenyl]-6-[(2S)-2-methylazetidin-1-yl] pyrimidine-4-carboxamide] | 0.00148 | > 20 | 96.1
18 | CN1CC[C@@](O)(C#Cc2cccc(-c3nc(C(N)=O)cc(N4CC[C@@H]4c4cccs4)n3)c2)C1=O [Example 26, 2-[3-[2-[(3R)-3-hydroxy-1-methyl-2-oxo-pyrrolidin-3-yl]ethynyl]phenyl]-6-[(2R)-2-(2-thienyl)azetidin-1-yl] pyrimidine-4-carboxamide] | 0.00485 | > 20 | 110
19 | CN1CC[C@@](O)(C#Cc2cccc(-c3nc(C(N)=O)cc(N4CC[C@H]4c4cccs4)n3)c2)C1=O [Example 27, 2-[3-[2-[(3R)-3-hydroxy-1-methyl-2-oxo-pyrrolidin-3-yl]ethynyl]phenyl]-6-[(2S)-2-(2-thienyl)azetidin-1-yl]pyrimidine-4-carboxamide] | 0.00334 | > 20 | 87.2
20 | CC(C)C[C@@H]1CCCN1c1cc(C(N)=O)nc(-c2cccc(C#C[C@]3(O)CCN(C)C3=O)c2)n1 [Example 28, 2-[3-[2-[(3R)-3-hydroxy-1-methyl-2-oxo-pyrrolidin-3-yl]ethynyl]phenyl]-6-[(2S)-2-isobutylpyrrolidin-1-yl] pyrimidine-4-carboxamide] | 0.00238 | > 20 | 229
